In the supplement of paper PMC11451515:

How the values were obtained:
Settings in all cases: 48 h
NOMO1 [1] = assay: cell viability relative to DMSO control; higher = less cytotoxic
Outline: (§1)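 Before seeding, each leukemia line was adapted for at least four passages in each medium. NOMO1 or SEM cells (500 cells/well) and P12-Ichikawa cells (1000 cells/well) went into 1536-well plates at 5 μl, then received library compounds in DMSO by pin dosing across 11 threefold concentrations, 47 μM to 0.79 nM. Readout was CellTiter-Glo One luminescence after 48 h at 37°C, and viability is given as a per-plate percentage of DMSO wells, with cell-free wells as background.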

P12-Ichikawa [2] = assay: as above
Outline: as §1

SEM cells [3] = assay: as above
Outline: as §1

NOMO1 [4] = assay: AUC of viability dose-response curve (% viability x log10 dose units); higher = less sensitive
Outline: (§2)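 Viability of medium-adapted leukemia cells was measured by CellTiter-Glo One luminescence after 48 h at 37°C with library compounds in DMSO. Doses were 11 threefold steps from 47 μM to 0.79 nM, in 1536-well plates at 500 or 1000 cells/well. Signals were normalised per plate to DMSO and cell-free wells and fitted with a four-parameter log-logistic model on log10 dose. Area under the curve was integrated by trapezoidal rule, with curves exceeding full viability scaled and failed quality-control curves removed.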

P12-Ichikawa [5] = assay: as above
Outline: as §2

SEM cells [6] = assay: as above
Outline: as §2

CC(=O)OCC(CCn1cnc2cnc(N)nc21)COC(C)=O
cell viability [%]
Settings	NOMO1 [1]	P12-Ichikawa [2]	SEM cells [3]
HPLM + 10% dialyzed FBS, 0.000781 µM	80	92.3	83.4
HPLM + 10% dialyzed FBS, 0.00234 µM	105	103	65.5
HPLM + 10% dialyzed FBS, 0.00702 µM	89.9	109	93.6
HPLM + 10% dialyzed FBS, 0.0211 µM	98.4	106	84.8
HPLM + 10% dialyzed FBS, 0.0632 µM	102	113	97.3
HPLM + 10% dialyzed FBS, 0.19 µM	113	102	101
HPLM + 10% dialyzed FBS, 0.569 µM	102	108	105
HPLM + 10% dialyzed FBS, 1.71 µM	120	106	101
HPLM + 10% dialyzed FBS, 5.12 µM	112	112	97.7
HPLM + 10% dialyzed FBS, 15.4 µM	103	110	109
HPLM + 10% dialyzed FBS, 46.1 µM	101	111	90.8
RPMI 5 mM glucose + 10% FBS, 0.000781 µM	91.7	89.8	85.9
RPMI 5 mM glucose + 10% FBS, 0.00234 µM	101	95	71.3
RPMI 5 mM glucose + 10% FBS, 0.00702 µM	92.8	103	69.2
RPMI 5 mM glucose + 10% FBS, 0.0211 µM	93.1	103	97.5
RPMI 5 mM glucose + 10% FBS, 0.0632 µM	93.9	108	88.1
RPMI 5 mM glucose + 10% FBS, 0.19 µM	106	97.3	98.3
RPMI 5 mM glucose + 10% FBS, 0.569 µM	98.9	102	98.2
RPMI 5 mM glucose + 10% FBS, 1.71 µM	108	102	103
RPMI 5 mM glucose + 10% FBS, 5.12 µM	104	101	97.4
RPMI 5 mM glucose + 10% FBS, 15.4 µM	94.2	106	103
RPMI 5 mM glucose + 10% FBS, 46.1 µM	92.7	103	109
RPMI 5 mM glucose + 10% dialyzed FBS, 0.000781 µM	92.4	92.5	79.3
RPMI 5 mM glucose + 10% dialyzed FBS, 0.00234 µM	91.3	101	79.8
RPMI 5 mM glucose + 10% dialyzed FBS, 0.00702 µM	104	98	74.9
RPMI 5 mM glucose + 10% dialyzed FBS, 0.0211 µM	93	87.9	81.2
RPMI 5 mM glucose + 10% dialyzed FBS, 0.0632 µM	89.9	105	96
RPMI 5 mM glucose + 10% dialyzed FBS, 0.19 µM	112	104	95.5
RPMI 5 mM glucose + 10% dialyzed FBS, 0.569 µM	100	97	103
RPMI 5 mM glucose + 10% dialyzed FBS, 1.71 µM	101	106	97
RPMI 5 mM glucose + 10% dialyzed FBS, 5.12 µM	99.9	102	110
RPMI 5 mM glucose + 10% dialyzed FBS, 15.4 µM	108	103	97.9
RPMI 5 mM glucose + 10% dialyzed FBS, 46.1 µM	90.3	97.3	95.6

AUC of viability dose-response curve
Settings	NOMO1 [4]	P12-Ichikawa [5]	SEM cells [6]
HPLM + 10% dialyzed FBS	454	470	445
RPMI 5 mM glucose + 10% FBS	464	470	434
RPMI 5 mM glucose + 10% dialyzed FBS	462	465	440
